The results in this text go back to article PMC4847174, “C1, a highly potent novel curcumin derivative, binds to tubulin, disrupts microtubule network and induces apoptosis” (Bioscience Reports, 2016).

A word on the Kd: it is the constant that tells how readily two partners part at equilibrium. Read a high Kd as a looser complex.

Assay [1] addresses T1, tubulin.
T1 construct: tubulin purified from goat brain
Kind of assay: quenching of intrinsic tryptophan fluorescence; gel filtration co-elution; curcumin displacement; polymerization inhibition. The format is binding, Capra hircus. On the technique in general: Size exclusion chromatography separates by hydrodynamic size, large species first.

Assay [2] deals with T1, tubulin. The experiment in a line: quenching of intrinsic tryptophan fluorescence. The format is binding, Capra hircus.

In turn, `COc1cc(/C=C/C(=O)C(=CC2CCN(C(=O)OC(C)(C)C)CC2)C(=O)/C=C/c2ccc(O)c(OC)c2)ccc1O` [C1, 4-{5-(4-hydroxy-3-methoxy-phenyl)-2-[3-(4-hydroxy-3-methoxy-phenyl)-acryloyl]-3-oxo-penta-1,4-dienyl}-piperidine-1-carboxylic acid tert-butyl ester] displayed a Kd at tubulin [1] of 2.8 ± 1 µM.
In the case of `COc1cc(/C=C/C(=O)CC(=O)/C=C/c2ccc(O)c(OC)c2)ccc1O` [Curcumin], the dissociation constant Kd at tubulin [2] is 5.2 ± 0.8 µM.
